From ChEMBL document CHEMBL1154016, “An efficient synthesis and biological study of novel indolyl-1,3,4-oxadiazoles as potent anticancer agents” (Bioorg Med Chem Lett, 2009) come the findings set out here.

The subject of experiment [1] is MCF7. The experiment in a line: Cytotoxicity against human MCF7 cells by MTT assay. Type of experiment: functional, cell-based.
In a further experiment the test system is PC-3. Briefly: Cytotoxicity against human PC3 cells by MTT assay. Type of experiment: functional, cell-based.
Another experiment relates to MDA-MB-231. The experiment in a line: Cytotoxicity against human MDA-MB-231 cells by MTT assay. It is filed as functional, cell-based.
In the next experiment the test system is LNCaP. The experiment in a line: Cytotoxicity against human LNCAP cells by MTT assay. It is filed as functional, cell-based.
Another experiment relates to MIA PaCa-2. The experiment in a line: Cytotoxicity against human MIAPaCa2 cells by MTT assay. It is filed as functional, cell-based.
In a further experiment the test system is DU-145. Briefly: Cytotoxicity against human DU145 cells by MTT assay. Type of experiment: functional, cell-based.
For experiment [2], the system named is MCF7. Briefly: Selectivity ratio of IC50 for human MIAPaCa2 cells to IC50 for human MCF7 cells. Type of experiment: functional.

For the compound `COc1ccc(-c2nnc(-c3c[nH]c4ccccc34)o2)c(OC)c1OC`, the IC50 is 121 µM in the experiment on MCF7 [1]; over 1000 µM in the experiment on PC-3; over 1000 µM with MDA-MB-231; over 1000 µM in the experiment with LNCaP; over 1000 µM with MIA PaCa-2; over 1000 µM in the experiment on DU-145.
Take `c1ccc2c(-c3nnc(-c4ccncc4)o3)c[nH]c2c1`: the IC50 in the experiment on MCF7 [1] was 1 µM; in the experiment with PC-3 it was 4.1 µM; with MDA-MB-231, over 1000 µM; in the experiment on LNCaP, 10 µM; with MIA PaCa-2, 1.6 µM; with DU-145, 20.4 µM.
Consider `Cc1nnc(-c2c[nH]c3ccccc23)o1`, for which the IC50 with MCF7 [1] is 198 µM; in the experiment with PC-3 it was over 1000 µM; in the experiment on MDA-MB-231 it was over 1000 µM; with LNCaP it was over 1000 µM; with MIA PaCa-2, 145 µM; in the experiment with DU-145 it was over 1000 µM.
Take `Clc1ccc(-c2nnc(-c3c[nH]c4ccccc34)o2)cc1`: the IC50 with MCF7 [1] is 48.2 µM; in the experiment on PC-3, 41.6 µM; with MDA-MB-231, over 1000 µM; in the experiment on LNCaP, 583 µM; with MIA PaCa-2, 6460 µM; in the experiment on DU-145, 192 µM.
Turning to `c1cncc(-c2nnc(-c3c[nH]c4ccccc34)o2)c1`, the IC50 with MCF7 [1] was 5.4 µM; in the experiment on PC-3, 711 µM; in the experiment on MDA-MB-231, over 1000 µM; with LNCaP, 69.4 µM; with MIA PaCa-2, 0.9 µM; in the experiment on DU-145, 170 µM.
Take `COc1cc(-c2nnc(-c3cn(C)c4ccccc34)o2)ccc1OCc1ccccc1`: the IC50 is 35.2 µM in the experiment on MCF7 [1]; over 1000 µM in the experiment with PC-3; over 1000 µM in the experiment on MDA-MB-231; over 1000 µM in the experiment on LNCaP; 1.4 µM in the experiment on MIA PaCa-2; over 1000 µM with DU-145.
On to `COc1cc(-c2nnc(-c3c[nH]c4ccccc34)o2)ccc1O`, for which the IC50 with MCF7 [1], with PC-3, with MDA-MB-231, with LNCaP, in the experiment with MIA PaCa-2 and in the experiment with DU-145 was over 1000 µM throughout.
As to `COc1ccc(-c2nnc(-c3c[nH]c4ccccc34)o2)cc1`, the IC50 with MCF7 [1], in the experiment with PC-3, in the experiment with MDA-MB-231, in the experiment with LNCaP, in the experiment with MIA PaCa-2 and with DU-145 was over 1000 µM each time.
Regarding `FC(F)(F)c1nnc(-c2c[nH]c3ccccc23)o1`, the IC50 in the experiment with MCF7 [1], in the experiment on PC-3, with MDA-MB-231, in the experiment with LNCaP, with MIA PaCa-2 and with DU-145 was over 1000 µM each time.
On to `c1ccc(Cc2nnc(-c3c[nH]c4ccccc34)o2)cc1`, for which the half-maximal inhibitory concentration (IC50) with MCF7 [1] was 39.2 µM; in the experiment with PC-3, over 1000 µM; in the experiment with MDA-MB-231 it was over 1000 µM; in the experiment with LNCaP, over 1000 µM; in the experiment with MIA PaCa-2 it was 934 µM; in the experiment with DU-145, over 1000 µM. Further, in the experiment with MCF7 [2], the “Ratio IC50” value turned out to be 24.
Consider `COc1ccc(-c2nnc(-c3c[nH]c4ccccc34)o2)cc1OC`, for which the IC50 in the experiment with MCF7 [1] was 557 µM; in the experiment on PC-3, over 1000 µM; with MDA-MB-231, over 1000 µM; in the experiment on LNCaP, over 1000 µM; with MIA PaCa-2, over 1000 µM; in the experiment with DU-145, over 1000 µM.
Consider `c1ccc(-c2nnc(-c3c[nH]c4ccccc34)o2)cc1`, for which the IC50 with MCF7 [1] was 388 µM; in the experiment on PC-3 it was over 1000 µM; in the experiment with MDA-MB-231, over 1000 µM; with LNCaP, over 1000 µM; with MIA PaCa-2, over 1000 µM; in the experiment with DU-145 it was over 1000 µM.
Turning to `COc1cc(-c2nnc(-c3c[nH]c4ccccc34)o2)ccc1OCc1ccccc1`, the IC50 in the experiment on MCF7 [1], with PC-3, in the experiment on MDA-MB-231, in the experiment on LNCaP, with MIA PaCa-2 and with DU-145 was over 1000 µM in each case.
